Results as given in patent US12263180B2, “Method for treatment of COVID-19-associated conditions” (priority 2020, dated 2025).
Values after ≈ are worked out from the molar mass of the structure shown. Read-outs that look alike come from different tables or passages of the source.

How the values were obtained:
human neutrophils = conditions: in vitro; cited from earlier work
physchem = conditions: aqueous buffer
[1] = tested on: chronic immune thrombocytopenia (ITP); conditions: ITP patients, two randomized studies; cited from earlier work
IL-6 = conditions: RA patients, within the first week of treatment; cited from earlier work
COVID-19 [2] = experiment: Phase 3 placebo-controlled study in hospitalized COVID-19 patients; assay type: in vivo
[3] = human, in vivo; cited from earlier work
[4] = in vivo
COVID-19 [5] = conditions: critically ill COVID-19 patients, compared to standard care; cited from earlier work
human ACE2 = human ACE2 (Homo sapiens, UniProt Q9BYF1); conditions: cited from earlier work
[6] = tested on: SARS-CoV-2 as well as other human and bat coronaviruses; conditions: mice; cited from earlier work
[7] = tested on: SARS-CoV-2 as well as other human and bat coronaviruses; conditions: human airway epithelial cells; cited from earlier work
[8] = water solubility in aqueous buffer under physiological conditions
MUC1 = conditions: mouse model of ALI; cited from earlier work
LPS-induced ALI = conditions: mice; cited from earlier work

Chain of human ACE2 (Q9BYF1 18-805): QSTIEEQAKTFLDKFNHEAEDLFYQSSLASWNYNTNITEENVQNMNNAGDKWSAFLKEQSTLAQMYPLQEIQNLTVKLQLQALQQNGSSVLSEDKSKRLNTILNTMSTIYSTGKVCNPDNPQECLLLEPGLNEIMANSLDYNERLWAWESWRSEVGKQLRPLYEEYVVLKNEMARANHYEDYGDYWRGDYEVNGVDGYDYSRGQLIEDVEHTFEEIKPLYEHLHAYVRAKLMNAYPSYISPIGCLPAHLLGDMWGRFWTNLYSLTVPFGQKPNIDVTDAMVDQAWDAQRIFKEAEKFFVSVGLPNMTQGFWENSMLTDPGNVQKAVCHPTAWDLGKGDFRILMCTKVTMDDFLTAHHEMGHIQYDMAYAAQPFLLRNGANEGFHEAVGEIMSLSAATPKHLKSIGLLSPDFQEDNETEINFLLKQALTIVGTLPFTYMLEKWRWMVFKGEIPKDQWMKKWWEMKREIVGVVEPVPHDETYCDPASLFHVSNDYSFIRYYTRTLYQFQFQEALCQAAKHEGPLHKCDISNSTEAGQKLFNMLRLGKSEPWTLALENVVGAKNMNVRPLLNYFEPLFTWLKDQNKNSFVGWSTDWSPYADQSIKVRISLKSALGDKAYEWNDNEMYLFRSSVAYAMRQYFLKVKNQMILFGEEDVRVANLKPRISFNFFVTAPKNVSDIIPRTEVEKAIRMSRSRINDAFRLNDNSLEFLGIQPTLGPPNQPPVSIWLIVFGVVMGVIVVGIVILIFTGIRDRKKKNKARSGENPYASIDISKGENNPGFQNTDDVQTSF

## COc1cc(Nc2ncc(F)c(Nc3ccc4c(n3)N(COP(=O)(O)O)C(=O)C(C)(C)O4)n2)cc(OC)c1OC [Compound 4]
Human neutrophils
  NETosis: block NETosis
physchem
  solubility: > 5000 µg/mL
[1]
  bleeding episodes: decreased bleeding episodes
  platelet counts: increased platelet counts
IL-6
  plasma levels of IL-6: reduce plasma levels of IL-6
COVID-19 [2]; vs placebo
  occurrence of several severe symptoms of COVID-19 (AKI, kidney malfunction, acute lung injury, thrombosis, coagulopathy): significantly reduced
  percentage of COVID-19 infected patients that develop severe disease that requires intensive care: significantly reduce
COVID-19 [2]; within 29 days of first dose, vs placebo
  percentage of patients developing severe or critical disease: significantly smaller percentage
COVID-19 [2]; within patients requiring intensive care
  percentage of patients that develop ARDS: significantly reduce
COVID-19 [2]; within patients that develop ARDS
  number of patients that die: significantly reduce
[3]
  safety profile: manageable safety profile
[4]
  oral bioavailability when formulated with progroup -CH2-O-P(O)(OH)2: increased dramatically

## C[C@]12CCC(=O)C=C1CC[C@@H]1[C@@H]2[C@@H](O)C[C@@]2(C)[C@H]1CC[C@]2(O)C(=O)CO [hydrocortisone, Hydrocortisone]
COVID-19 [5]
  mortality rate: effective in reducing mortality rate

## N[C@@H](CCN[C@@H](CCN1CC[C@H]1C(=O)O)C(=O)O)C(=O)O [nicotianamine]
Human ACE2
  IC50: 0.084 µM

## O=c1nc(NO)ccn1[C@@H]1O[C@H](CO)[C@@H](O)[C@H]1O [N4-hydroxycytidine]
[6]
  inhibition of coronaviruses: inhibit SARS-CoV-2 as well as other human and bat coronaviruses
[7]
  inhibition of coronaviruses: inhibit SARS-CoV-2 as well as other human and bat coronaviruses

## COc1cc(Nc2ncc(F)c(Nc3ccc4c(n3)NC(=O)C(C)(C)O4)n2)cc(OC)c1OC [Compound 1, N4-(2,2-Dimethyl-3-oxo-4H-5-pyrid[1,4]oxazin-6-yl)-5-fluoro-N2-(3,4,5-trimethoxyphenyl)-2,4-pyrimidinediamine]
[8]
  solubility: 1 to 2 µg/mL (≈ 2.13 to 4.25 µM)
MUC1
  MUC1: reduced MUC1
LPS-induced ALI
  protection in LPS-induced ALI: protective
